According to patent US20130115671A1, “ENZYMES FROM CONIDIOBOLUS BREFELDIANUS AND PROCESS FOR PREPARATION THEREOF” (Council of Scientific and Industrial Research, priority 2010, published 2013):
Like-named read-outs stand apart in the source and are kept apart here.

Experiments:
[1] = system: protease from Conidiobolus brefeldianus MTCC 5185; assay: Stability of protease in presence of organic solvents at 37° C.; assay type: physicochemical; settings: 20% (v/v) solvent; for Residual Activity (%) of protease, 30 min: pH 7, 30 min; for Residual Activity (%) of protease, 60 min: pH 7, 60 min; for Residual Activity (%) of protease, 120 min: pH 7, 120 min; for Residual Activity (%) of protease, 240 min: pH 7, 240 min; for Residual Activity (%) of protease, 0: crude protease, pH 7, 0 min
Experimental: (§1) This example illustrates the effect of water miscible as well as water immiscible organic solvents on stability of crude protease at 37° C. […] Samples were removed at different time intervals and residual activity was estimated. Sample without organic solvent served as control.

[2] = system: protease from Conidiobolus brefeldianus MTCC 5185; assay: Stability of protease in presence of organic solvents at 28° C.; assay type: physicochemical; parameters: key to residual activity of protease, 0 h / residual activity of protease, 12 h: % of initial activity with respective solvent (initial = 100%); settings: crude protease, 20% (v/v) solvent
Experimental: as §1, with “28°” for “37°”, “control. Initial activity with respective solvents was taken as 100% (Table 17). […] (Table 17).” for “control.”

[3] = system: protease from Conidiobolus brefeldianus MTCC 5185
Experimental: This example illustrates the stability of the protease in presence of salts. […] Aliquots were removed at regular intervals of 30 min and residual activity was estimated at 50° C., pH 9.

[4] = system: protease secreted by Conidiobolus brefeldianus MTCC 5185; assay: Effect of metals on protease activity; assay type: biochemical
[5] = system: protease of Conidiobolus brefeldianus MTCC 5185; assay: Effect of inhibitors on protease activity (PMSF, EDTA, iodoacetate, DMSO); assay type: biochemical
Excerpt: This example illustrates the effect of inhibitors on protease activity of Conidiobolus brefeldianus MTCC 5185. Following inhibitors were studied: phenylmethylsulfonyl fluoride (PMSF), ethylene-diaminetetraacetic acid (EDTA), iodoacetic acid, and dimeth ylsulphoxide (DMSO). The crude culture filtrate grown as described in example 3 was concentrated by ultra-filtration on PM-10 and YM-3 membranes as described in example 27 and used for inhibition studies. Both the protease preparations were pre-incubated in 100 mM Tris-HCl buffer (pH 8.0) with each inhibitor for 1 h and the residual protease activity was measured at 50° C., pH 9.0. Protease without inhibitor served as control.

[6] = system: protease from Conidiobolus brefeldianus MTCC 5185; assay: Stability of protease at 50° C. in presence of sugar alcohols; assay type: physicochemical; parameters: unit not given here
Experimental: Ultrafiltered protease as described in example 27 was incubated at 50° C. in presence of glycerol, mannitol, sorbitol and xylitol at 20% concentration up to 3 h. Aliquots were removed at regular intervals of 30 min and residual activity was estimated at 50° C., pH 9.

[7] = metal 5 mM in assay mixture, crude protease
[8] = pre-incubated 1 h, pH 8.0, 20 mM EDTA, 10 mM Iodoacetate, 1 mM PMSF (in DMSO), DMSO

| SMILES | Residual Activity (%) of protease, 30 min [1] | Residual Activity (%) of protease, 60 min [1] | Residual Activity (%) of protease, 120 min [1] | Residual Activity (%) of protease, 240 min [1] | Residual Activity (%) of protease, 0 [1] | residual activity of protease, 0 h [2] | residual activity of protease, 5 h [2] | residual activity of protease, 12 h [2] | Relative Activity (%) of protease [4, 7] | further results |
| --- | --- | --- | --- | --- | --- | --- | --- | --- | --- | --- |
| CC(C)=O [Acetone, acetone] | 91.66% | 81.10% | 60.57% | 29.53% | 100% | 100 | 95.66 | 55.51 |  |  |
| CC#N [Acetonitrile, acetonitrile] | 37.19% | 36.40% | 17.52% | 13.45% | 100% | 100 | 98.31 | 49.90 |  |  |
| [Ca+2].[Cl-].[Cl-] [CaCl2, Calcium chloride] |  |  |  |  |  |  |  |  |  | Residual Activity (%) of protease at 50° C. ([3]; 10 mM CaCl2, 0.5M NaCl, 0.5M glycine or 15% (NH4)2SO4, 0 min): 100.00%; Residual Activity (%) of protease at 50° C. ([3]; salt concentration as in column head, 30 min): 91.70%; Residual Activity (%) of protease at 50° C. ([3]; salt concentration as in column head, 60 min): 83.17%; Residual Activity (%) of protease at 50° C. ([3]; salt concentration as in column head, 90 min): 70.83%; Residual Activity (%) of protease at 50° C. ([3]; salt concentration as in column head, 120 min): 63.83%; Residual Activity (%) of protease at 50° C. ([3]; salt concentration as in column head, 180 min): 54.65%; Residual Activity (%) of protease at 50° C. ([3]; salt concentration as in column head, 180 min, listed as Calcium chloride): around 55%; Relative Activity (%) of protease [4]: 118.25%; effect on protease activity [4]: active |
| [Cl][Cd][Cl] [CdCl2] |  |  |  |  |  |  |  |  | 114.30% | effect on protease activity ([4]; metal 5 mM): active |
| [Cl-].[Cl-].[Co+2] [CoCl2] |  |  |  |  |  |  |  |  |  | Relative Activity (%) of protease [4]: 118.71%; effect on protease activity [4]: active |
| [Cl][Cu][Cl] [CuCl2] |  |  |  |  |  |  |  |  | 12.78% |  |
| O=C(O)CN(CCN(CC(=O)O)CC(=O)O)CC(=O)O [EDTA, ethylene-diaminetetraacetic acid] |  |  |  |  |  |  |  |  |  | Inhibition (%) PM-10 Retentate [5, 8]: 0.0%; Inhibition (%) YM-3 Retentate [5, 8]: 3.93% |
| [Cl][Hg][Cl] [HgCl2] |  |  |  |  |  |  |  |  | 3.27% | effect on protease activity ([4]; metal 5 mM): totally inhibited |
| O=C(O)CI [Iodoacetate, iodoacetic acid] |  |  |  |  |  |  |  |  |  | Inhibition (%) PM-10 Retentate ([5]; pH 8): 0.0%; Inhibition (%) YM-3 Retentate ([5]; pH 8): 16.54% |
| CC(C)O [Isopropanol, isopropanol] | 46.06% | 34.35% | 18.73% | 17.11% | 100% | 100 | 100.29 | 57.79 |  |  |
| [Cl-].[K+] [KCl] |  |  |  |  |  |  |  |  | 158.50% | effect on protease activity ([4]; metal 5 mM): active |
| OC[C@@H](O)[C@@H](O)[C@H](O)[C@H](O)CO [Mannitol, mannitol] |  |  |  |  |  |  |  |  |  | residual activity of protease at 50° C. ([6]; 20% sugar alcohol, 30 min): 74.06; residual activity of protease at 50° C. ([6]; 20% sugar alcohol, 60 min): 64.42; residual activity of protease at 50° C. ([6]; 20% sugar alcohol, 90 min): 58.13; residual activity of protease at 50° C. ([6]; 20% sugar alcohol, 120 min): 48.66; residual activity of protease at 50° C. ([6]; 20% sugar alcohol, 180 min): 40.71; residual activity of protease at 50° C. ([6]; ultrafiltered protease with 20% sugar alcohol, 0 min): 100 |
| CO [Methanol, methanol] | 59.43% | 59.45% | 48.36% | 16.60% | 100% | 100 | 100.13 | 52.64 |  |  |
